This note sets out measurements from patent US20180179386A1, “NANOGEL COMPOUND” (priority 2015, published 2018).

The subject of this series is DOXO resistant cell line KB-V1. The series can be described thus: Cytotoxicity of DOXO-loaded nanogel compounds vs free DOXO, MTT assay, resistant cells. Type of series: cell-based. To be noted: free DOXO up to 10 μM external concentration. An excerpt:
In order to use the nanogel compounds for anticancer therapy, the cytotoxicity of the DOXO-loaded nanogel compounds compared with free DOXO was studied in two different cell lines: sensitive-type HeLa cells and DOXO resistant cell line KB-V1. Thereby, squares denote PNIPAM-dPG/AMPS, circles denote PNIPAM-dPG/DMAEM, and triangles denote free DOXO.

SMILES strings stand for the structures.

Take `COc1cccc2c1C(=O)c1c(O)c3c(c(O)c1C2=O)C[C@@](O)(C(=O)CO)C[C@@H]3O[C@H]1C[C@H](N)[C@H](O)[C@H](C)O1` [DOXO, doxorubicin]: the cytotoxicity entry is reported as “no effect”.
